In US20220267380A1, “Glycopeptides Increasing Lipid Synthesis” (TFCHEM, priority 2019, published 2022):

Tested on: normal human dermal fibroblasts (NHDF)
Assay: Signal transduction pathway analysis (Ingenuity Pathway Analysis, activation z-score)
Conditions: 10 mg/ml
Description: Signal transduction pathway analysis: the results were then processed with IPA (Ingenuity Pathway Analysis, Qiagen®) software to identify signal transduction pathways modulated by each treatment. This software takes into account the Fold Change values of each gene and, when there is enough information, the direction of modulation of the signal transduction pathways can be identified. The relevance of the effect of each treatment on a given pathway was quantified by z-score. The z-score predicts the directional change on that effect.
A more advanced bioinformatics analysis was performed using the Ingenuity Pathway Analysis software (IPA from Qiagen®). This analysis allows the identification of the impacted signaling pathways and predicts their modulation.

SMILES	result of the analysis of signaling pathways	Activation z-score, Metabolism of cholesterol (positive = stimulation)	Activation z-score, synthesis of cholesterol (positive = stimulation)	Activation z-score, synthesis of lipid (positive = stimulation)
N[C@@H](CCCCNCC(F)(F)[C@]1(O)O[C@H](CO)[C@H](O)[C@H](O)[C@H]1O)C(=O)O [Compound 3]	predictive activation of the lipid synthesis and the cholesterol biosynthetic process at a transcriptional level	1.083	0.399	1.002
C[C@H](NC(=O)[C@H](C)NC(=O)[C@@H](N)CCCCNCC(F)(F)[C@]1(O)O[C@H](CO)[C@H](O)[C@H](O)[C@H]1O)C(=O)O [Compound 1]	predictive activation of the lipid synthesis and the cholesterol biosynthetic process at a transcriptional level		2.169	2.668
CC(=O)N(CCCC[C@H](N)C(=O)O)CC(F)(F)[C@]1(O)O[C@H](CO)[C@H](O)[C@H](O)[C@H]1O [Compound 4]	predictive activation of the fatty acid and lipid synthesis and a stimulation of the adipocytes differentiation			
